Consider 6 sequences from patent publication US8968750B2, “Malaria vaccines based on apicomplexan ferlins, ferlin-like proteins and other C2-domain containing proteins” (Ruprecht-Karls-Universität Heidelberg, priority 2009, dated 2015).

The subject of this assay is peripheral blood mononuclear cells (PBMC). The experiment in a line: cultured IFNγ ELISpot over 10 days with PBMCs stimulated with Pf Ferlin epitopes. The class given is cell-based, human. The protocol: Each epitope was tested both individually and in pools of epitopes, which is summarised in this figure. Freshly isolated PBMCs from the blood of malaria-exposed and non-exposed (naïve) individuals were stimulated with the Pf Ferlin epitopes. The secretion of IFNγ was analysed by ELISpot. Pf AMA1, a known malarial blood stage antigen, was used as a positive control (FIG. 12B).
In order to investigate the presence of Pf Ferlin-specific T cells in malaria-exposed individuals, T-cell responses to Pf Ferlin peptides (NLLDPLVVV (SEQ ID NO:4), YLYVNIHKI (SEQ ID NO:5), LLLEGNFYL (SEQ ID NO:6), KLIPVNYEL (SEQ ID NO:7), YLYEKQQEL (SEQ ID NO:8), ILIPSLPLI (SEQ ID NO:9)) were tested in semi-immune Kenyan adults in collaboration with Dr. Britta urban at the Kenyan Medical Research Institute-Wellcome Trust Research Programme (KEMRI). All adults are resident in Junju District, about 60 km north of Mombasa at the Kenyan coast. The area has two high transmission seasons but low-level transmission occurs all year round (infectious bites per year:23-53) (Mwangi et al., 2005).
In order to determine the production of antigen-specific IFNγ by activated peripheral blood mononuclear cells (PBMC), cultured ELISpot analysis was carried out over a period of 10 days in malaria-exposed adults and malaria-naïve individuals. […] Furthermore, when studying the production of antigen-specific IFN-γ by activated peripheral blood mononuclear cells (PBMC) in 12 malaria-exposed adults and 5 malaria-naive individuals, Pf Ferlin-specific T cells were detected to at least one peptide in 4 out of 12 and to more than one peptide in 3 out of 12 malaria-exposed adults (Table 2).

As for “ILIPSLPLI (listed as Plasmodium falciparum) [Epitope 6]”, the “INFγ response to individual peptide (responder)” value (“INFγ response” below) runs as follows: (Patient Ad) “no (An INFγ response above SFC 500 identified the patient as a responder.)”; (Patient Fr) “no (An INFγ response above SFC 500 identified the patient as a responder.)”; (Patient JA029) “no (An INFγ response above SFC 500 identified the patient as a responder.)”; (Patient JA030) “yes (An INFγ response above SFC 500 identified the patient as a responder.)”; (Patient JA046) “no (An INFγ response above SFC 500 identified the patient as a responder.)”; (Patient JA047) “no (An INFγ response above SFC 500 identified the patient as a responder.)”. The “INFγ response” value is given as “no (An INFγ response above SFC 500 identified the patient as a responder.)” (Patient JA066), “no (An INFγ response above SFC 500 identified the patient as a responder.)” (Patient JA067) and “no (An INFγ response above SFC 500 identified the patient as a responder.)” (Patient JA086).

Turning to “KLIPVNYEL (listed as Plasmodium falciparum) [Epitope 4]”, the “INFγ response” value reads like this: (Patient Ad) “no (An INFγ response above SFC 500 identified the patient as a responder.)”; (Patient Fr) “no (An INFγ response above SFC 500 identified the patient as a responder.)”; (Patient JA006) “no (An INFγ response above SFC 500 identified the patient as a responder.)”; (Patient JA007) “no (An INFγ response above SFC 500 identified the patient as a responder.)”; (Patient JA029) “no (An INFγ response above SFC 500 identified the patient as a responder.)”; (Patient JA030) “yes (An INFγ response above SFC 500 identified the patient as a responder.)”. Further, the “INFγ response” value (Patient JA046) is reported as “no (An INFγ response above SFC 500 identified the patient as a responder.)”; the “INFγ response” value (Patient JA047) is given as “no (An INFγ response above SFC 500 identified the patient as a responder.)”; the “INFγ response” value (Patient JA066) is recorded as “no (An INFγ response above SFC 500 identified the patient as a responder.)”; the “INFγ response” value (Patient JA067) is reported as “no (An INFγ response above SFC 500 identified the patient as a responder.)”; the “INFγ response” value (Patient JA086) is “yes (An INFγ response above SFC 500 identified the patient as a responder.)”.

In the case of “LLLEGNFYL (listed as Plasmodium falciparum) [Epitope 3]”, the “INFγ response” value (Patient Ad) is “no (An INFγ response above SFC 500 identified the patient as a responder.)”; the “INFγ response” value (Patient Fr) is listed as “no (An INFγ response above SFC 500 identified the patient as a responder.)”; the “INFγ response” value (Patient JA006) was “no (An INFγ response above SFC 500 identified the patient as a responder.)”; the “INFγ response” value (Patient JA029) is reported as “yes (An INFγ response above SFC 500 identified the patient as a responder.)”; the “INFγ response” value (Patient JA030) is on record as “no (An INFγ response above SFC 500 identified the patient as a responder.)”; the “INFγ response” value (Patient JA046) was “no (An INFγ response above SFC 500 identified the patient as a responder.)”. Further, the “INFγ response” value (Patient JA047) is on record as “no (An INFγ response above SFC 500 identified the patient as a responder.)”, the “INFγ response” value (Patient JA066) was “no (An INFγ response above SFC 500 identified the patient as a responder.)”, the “INFγ response” value (Patient JA067) is “no (An INFγ response above SFC 500 identified the patient as a responder.)” and the “INFγ response” value (Patient JA086) is recorded as “yes (An INFγ response above SFC 500 identified the patient as a responder.)”.

For the sequence “NLLDPLVVV (listed as Plasmodium falciparum) [Epitope 1]”, the “INFγ response” value is, setting by setting: (Patient Ad) “yes (An INFγ response above SFC 500 identified the patient as a responder.)”; (Patient Fr) “no (An INFγ response above SFC 500 identified the patient as a responder.)”; (Patient JA006) “no (An INFγ response above SFC 500 identified the patient as a responder.)”; (Patient JA007) “no (An INFγ response above SFC 500 identified the patient as a responder.)”; (Patient JA029) “yes (An INFγ response above SFC 500 identified the patient as a responder.)”; (Patient JA030) “no (An INFγ response above SFC 500 identified the patient as a responder.)”. The “INFγ response” value runs as follows: (Patient JA046) “no (An INFγ response above SFC 500 identified the patient as a responder.)”; (Patient JA047) “no (An INFγ response above SFC 500 identified the patient as a responder.)”; (Patient JA066) “no (An INFγ response above SFC 500 identified the patient as a responder.)”; (Patient JA067) “no (An INFγ response above SFC 500 identified the patient as a responder.)”; (Patient JA086) “no (An INFγ response above SFC 500 identified the patient as a responder.)”; (Patient JA087) “no (An INFγ response above SFC 500 identified the patient as a responder.)”.

“YLYEKQQEL (listed as Plasmodium falciparum) [Epitope 5]”: the “INFγ response” value (Patient Ad) was “no (An INFγ response above SFC 500 identified the patient as a responder.)”; the “INFγ response” value (Patient Fr) is recorded as “no (An INFγ response above SFC 500 identified the patient as a responder.)”; the “INFγ response” value (Patient JA006) is recorded as “no (An INFγ response above SFC 500 identified the patient as a responder.)”; the “INFγ response” value (Patient JA029) is given as “no (An INFγ response above SFC 500 identified the patient as a responder.)”; the “INFγ response” value (Patient JA030) is on record as “yes (An INFγ response above SFC 500 identified the patient as a responder.)”; the “INFγ response” value (Patient JA046) was “no (An INFγ response above SFC 500 identified the patient as a responder.)”. Further, the “INFγ response” value reads like this: (Patient JA047) “no (An INFγ response above SFC 500 identified the patient as a responder.)”; (Patient JA086) “no (An INFγ response above SFC 500 identified the patient as a responder.)”.

In the case of “YLYVNIHKI (listed as Plasmodium falciparum) [Epitope 2]”, the “INFγ response” value by setting is: (Patient Ad) “no (An INFγ response above SFC 500 identified the patient as a responder.)”; (Patient Fr) “no (An INFγ response above SFC 500 identified the patient as a responder.)”; (Patient JA006) “no (An INFγ response above SFC 500 identified the patient as a responder.)”; (Patient JA029) “yes (An INFγ response above SFC 500 identified the patient as a responder.)”; (Patient JA030) “no (An INFγ response above SFC 500 identified the patient as a responder.)”; (Patient JA046) “no (An INFγ response above SFC 500 identified the patient as a responder.)”. The “INFγ response” value is “no (An INFγ response above SFC 500 identified the patient as a responder.)” (Patient JA047), “no (An INFγ response above SFC 500 identified the patient as a responder.)” (Patient JA066), “no (An INFγ response above SFC 500 identified the patient as a responder.)” (Patient JA067) and “no (An INFγ response above SFC 500 identified the patient as a responder.)” (Patient JA086).
